Measured values published in BigSolDB 2.1.

Cc1[nH]c(=O)c(C#N)cc1-c1ccncc1
solubility (mole fraction) (in DMF, 278.15 K): 7.95e-05 | solubility (mole fraction) (in DMF, 283.15 K): 9.2e-05 | solubility (mole fraction) (in DMF, 288.15 K): 0.000109 | solubility (mole fraction) (in DMF, 293.15 K): 0.000129 | solubility (mole fraction) (in DMF, 298.15 K): 0.000149 | solubility (mole fraction) (in DMF, 303.15 K): 0.000173 | solubility (mole fraction) (in DMF, 308.15 K): 0.000199 | solubility (mole fraction) (in DMF, 313.15 K): 0.000225 | solubility (mole fraction) (in DMF, 318.15 K): 0.000251 | solubility (mole fraction) (in DMF, 323.15 K): 0.000285 | solubility (mole fraction) (in ethanol, 278.15 K): 9.24e-06 | solubility (mole fraction) (in ethanol, 283.15 K): 1.13e-05 | solubility (mole fraction) (in ethanol, 288.15 K): 1.35e-05 | solubility (mole fraction) (in ethanol, 293.15 K): 1.58e-05 | solubility (mole fraction) (in ethanol, 298.15 K): 1.84e-05 | solubility (mole fraction) (in ethanol, 303.15 K): 2.13e-05 | solubility (mole fraction) (in ethanol, 308.15 K): 2.43e-05 | solubility (mole fraction) (in ethanol, 313.15 K): 2.74e-05 | solubility (mole fraction) (in ethanol, 318.15 K): 3.1e-05 | solubility (mole fraction) (in ethanol, 323.15 K): 3.5e-05 | solubility (mole fraction) (in ethylene glycol, 278.15 K): 1.72e-05 | solubility (mole fraction) (in ethylene glycol, 283.15 K): 2.09e-05 | solubility (mole fraction) (in ethylene glycol, 288.15 K): 2.46e-05 | solubility (mole fraction) (in ethylene glycol, 293.15 K): 2.89e-05 | solubility (mole fraction) (in ethylene glycol, 298.15 K): 3.37e-05 | solubility (mole fraction) (in ethylene glycol, 303.15 K): 3.89e-05 | solubility (mole fraction) (in ethylene glycol, 308.15 K): 4.4e-05 | solubility (mole fraction) (in ethylene glycol, 313.15 K): 5.03e-05 | solubility (mole fraction) (in ethylene glycol, 318.15 K): 5.66e-05 | solubility (mole fraction) (in ethylene glycol, 323.15 K): 6.44e-05 | solubility (mole fraction) (in isopropanol, 278.15 K): 2.44e-05 | solubility (mole fraction) (in isopropanol, 283.15 K): 2.89e-05 | solubility (mole fraction) (in isopropanol, 288.15 K): 3.43e-05 | solubility (mole fraction) (in isopropanol, 293.15 K): 4.03e-05 | solubility (mole fraction) (in isopropanol, 298.15 K): 4.73e-05 | solubility (mole fraction) (in isopropanol, 303.15 K): 5.4e-05 | solubility (mole fraction) (in isopropanol, 308.15 K): 6.16e-05 | solubility (mole fraction) (in isopropanol, 313.15 K): 7.07e-05 | solubility (mole fraction) (in isopropanol, 318.15 K): 7.92e-05 | solubility (mole fraction) (in isopropanol, 323.15 K): 9.02e-05 | solubility (mole fraction) (in water, 278.15 K): 4.99e-07 | solubility (mole fraction) (in water, 283.15 K): 5.98e-07 | solubility (mole fraction) (in water, 288.15 K): 7.1e-07 | solubility (mole fraction) (in water, 293.15 K): 8.34e-07 | solubility (mole fraction) (in water, 298.15 K): 9.77e-07 | solubility (mole fraction) (in water, 303.15 K): 1.12e-06 | solubility (mole fraction) (in water, 308.15 K): 1.27e-06 | solubility (mole fraction) (in water, 313.15 K): 1.44e-06 | solubility (mole fraction) (in water, 318.15 K): 1.64e-06 | solubility (mole fraction) (in water, 323.15 K): 1.85e-06
